Source: ChEMBL document CHEMBL1201862, “PubChem BioAssay data set” (2004)
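All cell lines were grown in 96-well plates and treated with compound for 48 hours. GI50: concentration for 50% inhibition of growth.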 Activity calls are given as the source filed them. Cut-off read from the data, not from the text of the source: active = GI50 up to about 1.1 µM and inactive = higher.

Columns and labels:
Test in all cases: DTP human tumour cell line panel, 48 h
[1] = test system: HOP-62
[2] = test system: NCI-H460
[3] = test system: HCC 2998
[4] = test system: SK-MEL-28
[5] = test system: K562
[6] = test system: A549
[7] = test system: MCF7
[8] = test system: CAKI-1
[9] = test system: HL-60
[10] = test system: SN12C
[11] = test system: OVCAR-8
[12] = test system: DMS-273
[13] = test system: A498
[14] = test system: NCI/ADR-RES
[15] = test system: EKVX
[16] = test system: SF-295
[17] = test system: OVCAR-3
[18] = test system: IGROV-1
[19] = test system: UACC-257
[20] = test system: RXF 393

SMILES	GI50 [1]	GI50 [2]	GI50 [3]	GI50 [4]	GI50 [5]	GI50 [6]	GI50 [7]	GI50 [8]	GI50 [9]	GI50 [10]	GI50 [11]	GI50 [12]	GI50 [13]	GI50 [14]	GI50 [15]	GI50 [16]	GI50 [17]	GI50 [18]	GI50 [19]	GI50 [20]
c1ccc2c(c1)NCc1cc3ccccc3nc1O2	> 100 µM (inactive)	> 100 µM (inactive)	> 100 µM (inactive)	> 100 µM (inactive)	> 100 µM (inactive)	> 100 µM (inactive)	16 µM (inactive)	> 100 µM (inactive)	55.6 µM (inactive)	> 100 µM (inactive)	> 100 µM (inactive)	> 100 µM (inactive)	> 75.5 µM (inactive)	> 77.8 µM (inactive)	> 100 µM (inactive)	> 100 µM (inactive)	> 100 µM (inactive)	> 100 µM (inactive)	> 100 µM (inactive)	> 100 µM (inactive)
COc1cc2c(oc(=O)c3cc(C)cc(OC)c32)c2c(C3OC(C)C(O)C(C)(O)C3O)ccc(O)c12 (stereo not given)	0.284 µM (active)	0.142 µM (active)	0.665 µM (active)	0.861 µM (active)	0.277 µM (active)	0.439 µM (active)	0.237 µM (active)	0.432 µM (active)	0.045 µM (active)	0.402 µM (active)	0.256 µM (active)	0.336 µM (active)	0.465 µM (active)	0.622 µM (active)	0.776 µM (active)	0.358 µM (active)	0.785 µM (active)	0.815 µM (active)	0.731 µM (active)	0.38 µM (active)
COc1ccc2[nH]c3c(C)c4ccncc4c(C)c3c2c1	0.946 µM (active)	0.0292 µM (active)	1.92 µM (inactive)	2.09 µM (inactive)	0.196 µM (active)	0.264 µM (active)	0.359 µM (active)	0.601 µM (active)	0.532 µM (active)	0.177 µM (active)	0.111 µM (active)	0.218 µM (active)	0.504 µM (active)	0.139 µM (active)	1.01 µM (active)	0.521 µM (active)	0.402 µM (active)	0.289 µM (active)	1.85 µM (inactive)	0.1 µM (active)
CCOC(=O)c1c[nH]c2cc3c(cc2c1=O)CCS3(=O)=O.CCOC(=O)c1c[nH]c2ccc3c(c2c1=O)S(=O)(=O)CC3	> 100 µM (inactive)	> 100 µM (inactive)	> 100 µM (inactive)	> 100 µM (inactive)	> 100 µM (inactive)	> 100 µM (inactive)	83.8 µM (inactive)	> 100 µM (inactive)	> 100 µM (inactive)	> 100 µM (inactive)	> 100 µM (inactive)	> 100 µM (inactive)	> 100 µM (inactive)	> 100 µM (inactive)	> 100 µM (inactive)	> 100 µM (inactive)	> 100 µM (inactive)	> 100 µM (inactive)	> 100 µM (inactive)	> 100 µM (inactive)
